In the NIST ThermoML archive (doi:10.1021/je8007217):

Tests used:
[1] = xn = mol fraction of the nth substance listed; conditions: 298.15 K, 101 kPa, Liquid; for viscosity: Capillary tube (Ostwald / Ubbelohde) method; for mass density: Pycnometric method
[2] = 298.15 K, 101 kPa, Liquid; for viscosity: Capillary tube (Ostwald / Ubbelohde) method; for mass density: Pycnometric method

O=C1CCCCC1 [cyclohexanone] + COC(C)=O
[1]
Conditions | mass density [kg/m3] | viscosity [mPa·s]
x1 = 0.0774 | 927.4 | 0.407
x1 = 0.1587 | 928.5 | 0.445
x1 = 0.2444 | 929.9 | 0.504
x1 = 0.3347 | 931.3 | 0.577
x1 = 0.4301 | 932.9 | 0.666
x1 = 0.531 | 934.6 | 0.779
x1 = 0.6378 | 936.4 | 0.936
x1 = 0.7512 | 938.2 | 1.163
x1 = 0.8717 | 940.2 | 1.488
x1 = 1 | 941.6 | 2.02

CCOC(C)=O [ethyl acetate] + C1CCCCC1
[1]
Conditions | mass density [kg/m3] | viscosity [mPa·s]
x2 = 0 | 894.5 | 0.426
x2 = 0.1042 | 877 | 0.432
x2 = 0.2074 | 861.2 | 0.436
x2 = 0.3097 | 847 | 0.441
x2 = 0.4111 | 833.9 | 0.462
x2 = 0.5115 | 822.1 | 0.493
x2 = 0.611 | 811.2 | 0.533
x2 = 0.7095 | 801.2 | 0.585
x2 = 0.8072 | 791.8 | 0.653
x2 = 0.904 | 782.7 | 0.749

COC(C)=O [methyl ethanoate] + C1CCCCC1
[1]
Conditions | mass density [kg/m3] | viscosity [mPa·s]
x2 = 0 | 926.8 | 0.38
x2 = 0.0891 | 903.7 | 0.381
x2 = 0.1804 | 883.3 | 0.383
x2 = 0.2739 | 864.7 | 0.388
x2 = 0.3698 | 848.5 | 0.407
x2 = 0.4681 | 833.1 | 0.437
x2 = 0.569 | 819.4 | 0.477
x2 = 0.6725 | 806.4 | 0.535
x2 = 0.7788 | 794.9 | 0.603
x2 = 0.8879 | 784.2 | 0.708

CCOC(C)=O [ethyl acetate]
[2]
Conditions | mass density [kg/m3] | viscosity [mPa·s]
– | 894.5 | 0.426

CCCOC(C)=O [propyl ethanoate] + C1CCCCC1
[1]
Conditions | mass density [kg/m3] | viscosity [mPa·s]
x2 = 0 | 883 | 0.551
x2 = 0.1188 | 868.5 | 0.54
x2 = 0.2328 | 854.7 | 0.548
x2 = 0.3421 | 841.8 | 0.554
x2 = 0.4472 | 829.9 | 0.572
x2 = 0.5482 | 819.3 | 0.587
x2 = 0.6454 | 809.3 | 0.625
x2 = 0.739 | 800 | 0.663
x2 = 0.8292 | 791.1 | 0.715
x2 = 0.9161 | 782.3 | 0.786

C1CCCCC1 [cyclohexane] + CCOC(C)=O
[1], x1 = 1
Conditions | mass density [kg/m3] | viscosity [mPa·s]
– | 773.8 | 0.892

C1CCCCC1 [cyclohexane]
[2]
Conditions | mass density [kg/m3] | viscosity [mPa·s]
– | 773.8 | 0.892
